Experiments:
Type in all cases: in vivo
Kochia (Kochia scoparia) [1] = assay: Test A postemergence; conditions: Bassia scoparia, post-emergence, 240 h, postemergence; for pest or weed control at 125 g/ha: 125 g ai/ha, visual injury vs untreated controls after approx. 10 d, 0 = no effect, 100 = complete control, read-out: Kochia plant response rating (0 to 100 scale); for pest or weed control at 500 g/ha: 500 g ai/ha, 0 to 100 scale, 0 is no effect, 100 is complete control, read-out: Kochia plant response rating
Summary of the method: (§1)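 Preemergence soil spray on seeded pots or post-emergence spray on 1–2 leaf plants, in loam–sand blend. Greenhouse ~10 d. Visual rating 0–100 against untreated plants.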

[2] = system: wheat (Triticum aestivum); assay: Test A postemergence; conditions: Triticum aestivum, post-emergence, 240 h, postemergence; for plant injury at 125 g/ha: 125 g ai/ha, visual injury vs untreated controls after approx. 10 d, 0 = no effect, 100 = complete control, read-out: Wheat plant response rating (0 to 100 scale); for plant injury at 500 g/ha: 500 g ai/ha, 0 to 100 scale, 0 is no effect, 100 is complete control, read-out: Wheat plant response rating
Summary of the method: as §1

[3] = system: ragweed (common ragweed, Ambrosia elatior); assay: Test A postemergence; conditions: Ambrosia artemisiifolia, post-emergence, 240 h, postemergence; for pest or weed control at 125 g/ha: 125 g ai/ha, visual injury vs untreated controls after approx. 10 d, 0 = no effect, 100 = complete control, read-out: Ragweed plant response rating (0 to 100 scale); for pest or weed control at 500 g/ha: 500 g ai/ha, 0 to 100 scale, 0 is no effect, 100 is complete control, read-out: Ragweed plant response rating
Summary of the method: as §1

[4] = system: blackgrass (Alopecurus myosuroides); assay: Test A postemergence; conditions: Alopecurus myosuroides, post-emergence, 240 h, postemergence; for pest or weed control at 125 g/ha: 125 g ai/ha, visual injury vs untreated controls after approx. 10 d, 0 = no effect, 100 = complete control, read-out: Blackgrass plant response rating (0 to 100 scale); for pest or weed control at 500 g/ha: 500 g ai/ha, 0 to 100 scale, 0 is no effect, 100 is complete control, read-out: Blackgrass plant response rating
Summary of the method: as §1

[5] = system: pigweed (Amaranthus retroflexus); assay: Test A postemergence; conditions: Amaranthus retroflexus, post-emergence, 240 h, postemergence; for pest or weed control at 125 g/ha: 125 g ai/ha, visual injury vs untreated controls after approx. 10 d, 0 = no effect, 100 = complete control, read-out: Pigweed plant response rating (0 to 100 scale); for pest or weed control at 500 g/ha: 500 g ai/ha, 0 to 100 scale, 0 is no effect, 100 is complete control, read-out: Pigweed plant response rating
Summary of the method: as §1

corn (Zea mays) = assay: Test A postemergence; conditions: Zea mays, post-emergence, 240 h, postemergence; for plant injury at 125 g/ha: 125 g ai/ha, visual injury vs untreated controls after approx. 10 d, 0 = no effect, 100 = complete control, read-out: Corn plant response rating (0 to 100 scale); for plant injury at 500 g/ha: 500 g ai/ha, 0 to 100 scale, 0 is no effect, 100 is complete control, read-out: Corn plant response rating
Summary of the method: as §1

[6] = system: ryegrass, Italian (Italian ryegrass, Lolium multiflorum); assay: Test A postemergence; conditions: Lolium multiflorum, post-emergence, 240 h, postemergence; for pest or weed control at 125 g/ha: 125 g ai/ha, visual injury vs untreated controls after approx. 10 d, 0 = no effect, 100 = complete control, read-out: Ryegrass, Italian plant response rating (0 to 100 scale); for pest or weed control at 500 g/ha: 500 g ai/ha, 0 to 100 scale, 0 is no effect, 100 is complete control, read-out: Ryegrass, Italian plant response rating
Summary of the method: as §1

[7] = system: Galium (catchweed bedstraw, Galium aparine); assay: Test A postemergence; conditions: Galium, post-emergence, 240 h, postemergence; for pest or weed control at 125 g/ha: 125 g ai/ha, visual injury vs untreated controls after approx. 10 d, 0 = no effect, 100 = complete control, read-out: Galium plant response rating (0 to 100 scale); for pest or weed control at 500 g/ha: 500 g ai/ha, 0 to 100 scale, 0 is no effect, 100 is complete control, read-out: Galium plant response rating
Summary of the method: as §1

[8] = system: giant foxtail (Setaria faberii); assay: Test A postemergence; conditions: Setaria faberi, post-emergence, 240 h, postemergence; for pest or weed control at 125 g/ha: 125 g ai/ha, visual injury vs untreated controls after approx. 10 d, 0 = no effect, 100 = complete control, read-out: Foxtail, Giant plant response rating (0 to 100 scale); for pest or weed control at 500 g/ha: 500 g ai/ha, 0 to 100 scale, 0 is no effect, 100 is complete control, read-out: Foxtail, Giant plant response rating
Summary of the method: as §1

[9] = system: barnyardgrass (Echinochloa crus-galli); assay: Test A postemergence; conditions: Echinochloa crus-galli, post-emergence, 240 h, postemergence; for pest or weed control at 125 g/ha: 125 g ai/ha, visual injury vs untreated controls after approx. 10 d, 0 = no effect, 100 = complete control, read-out: Barnyardgrass plant response rating (0 to 100 scale); for pest or weed control at 500 g/ha: 500 g ai/ha, 0 to 100 scale, 0 is no effect, 100 is complete control, read-out: Barnyardgrass plant response rating
Summary of the method: as §1

Kochia (Kochia scoparia) [10] = assay: Test A preemergence; conditions: Bassia scoparia, pre-emergence, 240 h, preemergence, 0 to 100 scale where 0 is no effect and 100 is complete control, read-out: Kochia plant response rating; for pest or weed control at 125 g/ha: 125 g ai/ha, visual injury rating, approximately 10 d; for pest or weed control at 500 g/ha: 500 g ai/ha
Summary of the method: as §1

[11] = system: ragweed (common ragweed, Ambrosia elatior); assay: Test A preemergence; conditions: Ambrosia artemisiifolia, pre-emergence, 240 h, preemergence, 0 to 100 scale where 0 is no effect and 100 is complete control, read-out: Ragweed plant response rating; for pest or weed control at 125 g/ha: 125 g ai/ha, visual injury rating, approximately 10 d; for pest or weed control at 500 g/ha: 500 g ai/ha
Summary of the method: as §1

[12] = system: pigweed (Amaranthus retroflexus); assay: Test A preemergence; conditions: Amaranthus retroflexus, pre-emergence, 240 h, preemergence, 0 to 100 scale where 0 is no effect and 100 is complete control, read-out: Pigweed plant response rating; for pest or weed control at 125 g/ha: 125 g ai/ha, visual injury rating, approximately 10 d; for pest or weed control at 500 g/ha: 500 g ai/ha
[13] = system: ryegrass, Italian (Italian ryegrass, Lolium multiflorum); assay: Test A preemergence; conditions: Lolium multiflorum, pre-emergence, 240 h, preemergence, 0 to 100 scale where 0 is no effect and 100 is complete control, read-out: Ryegrass, Italian plant response rating; for pest or weed control at 125 g/ha: 125 g ai/ha, visual injury rating, approximately 10 d; for pest or weed control at 500 g/ha: 500 g ai/ha
Summary of the method: as §1

[14] = system: giant foxtail (Setaria faberii); assay: Test A preemergence; conditions: Setaria faberi, pre-emergence, 240 h, preemergence, 0 to 100 scale where 0 is no effect and 100 is complete control, read-out: Foxtail, Giant plant response rating; for pest or weed control at 125 g/ha: 125 g ai/ha, visual injury rating, approximately 10 d; for pest or weed control at 500 g/ha: 500 g ai/ha
Summary of the method: as §1

[15] = system: barnyardgrass (Echinochloa crus-galli); assay: Test A preemergence; conditions: Echinochloa crus-galli, pre-emergence, 240 h, preemergence, 0 to 100 scale where 0 is no effect and 100 is complete control, read-out: Barnyardgrass plant response rating; for pest or weed control at 125 g/ha: 125 g ai/ha, visual injury rating, approximately 10 d; for pest or weed control at 500 g/ha: 500 g ai/ha
Summary of the method: as §1

Structure (SMILES)	pest or weed control at 125 g/ha (Kochia (Kochia scoparia) [1]) [%]	pest or weed control at 500 g/ha (Kochia (Kochia scoparia) [1]) [%]	plant injury at 125 g/ha [2] [%]	plant injury at 500 g/ha [2] [%]	pest or weed control at 125 g/ha [3] [%]	pest or weed control at 500 g/ha [3] [%]	pest or weed control at 125 g/ha [4] [%]	pest or weed control at 500 g/ha [4] [%]	pest or weed control at 125 g/ha [5] [%]	pest or weed control at 500 g/ha [5] [%]	plant injury at 125 g/ha (corn (Zea mays)) [%]	plant injury at 500 g/ha (corn (Zea mays)) [%]	pest or weed control at 125 g/ha [6] [%]	pest or weed control at 500 g/ha [6] [%]	pest or weed control at 125 g/ha [7] [%]	pest or weed control at 500 g/ha [7] [%]	pest or weed control at 125 g/ha [8] [%]	pest or weed control at 500 g/ha [8] [%]	pest or weed control at 125 g/ha [9] [%]	pest or weed control at 500 g/ha [9] [%]	other results
Cc1cc([C@H]2CN(C)C(=O)[C@@H]2C(=O)Nc2ccccc2F)on1 [Compound 1195]	0	0	0	0	0	0	0	0	0	0	0	0	0	0	0	0	0	20	0	20	pest or weed control at 125 g/ha (Kochia (Kochia scoparia) [10]): 0%; pest or weed control at 500 g/ha (Kochia (Kochia scoparia) [10]): 0%; pest or weed control at 125 g/ha [11]: 0%; pest or weed control at 500 g/ha [11]: 0%; pest or weed control at 125 g/ha [12]: 0%; pest or weed control at 500 g/ha [12]: 0%; pest or weed control at 125 g/ha [13]: 0%; pest or weed control at 500 g/ha [13]: 0%; pest or weed control at 125 g/ha [14]: 0%; pest or weed control at 500 g/ha [14]: 40%; pest or weed control at 125 g/ha [15]: 0%; pest or weed control at 500 g/ha [15]: 80%
CSc1ccccc1NC(=O)[C@H]1C(=O)N(C)C[C@@H]1c1ccc(OC(F)F)cc1 [Compound 1212]	60	80	0	40	0	30	0	30	50	70	0	20	0	20	50	60	70	90	80	100	pest or weed control at 125 g/ha (Kochia (Kochia scoparia) [10]): 100%; pest or weed control at 500 g/ha (Kochia (Kochia scoparia) [10]): 100%; pest or weed control at 125 g/ha [11]: 40%; pest or weed control at 500 g/ha [11]: 90%; pest or weed control at 125 g/ha [12]: 80%; pest or weed control at 500 g/ha [12]: 90%; pest or weed control at 125 g/ha [13]: 0%; pest or weed control at 500 g/ha [13]: 70%; pest or weed control at 125 g/ha [14]: 90%; pest or weed control at 500 g/ha [14]: 100%; pest or weed control at 125 g/ha [15]: 80%; pest or weed control at 500 g/ha [15]: 100%

Source: patent US12077503B2, “Substituted cyclic amides and their use as herbicides” (FMC CORPORATION, priority 2015, dated 2024)
